Like-named read-outs stand apart in the source and are kept apart here.
Tests used:
[1] = tested on: ERK phosphorylation in KYSE-520 cells; test: Phospho-ERK cellular assay; assay type: cell-based; conditions: read-out: PERK IC50
Procedure, shortened: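 TR-FRET read-out of ERK1/2 Thr202/Tyr204 phosphorylation was taken after overnight antibody incubation at room temperature. Before that, KYSE-520 cells were treated 2 h at 37 °C with compound dilutions and lysed 30 min. Percent inhibition relative to vehicle and cell-free wells was fitted four-parametrically to give IC50.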

[2] = molecular target: SHP-2 enzyme (Met1-Leu525) (Homo sapiens (Human), UniProt Q06124); test: SHP2 inhibition enzymatic assay; assay type: biochemical; conditions: 0.5 nM SHP-2 activated by 500 nM IRS1 peptide, 75 μM DiFMUP substrate; read-out: SHP2wt-IC50
Procedure, shortened: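 SHP-2 (Met1-Leu525), 0.5 nM, activated with 500 nM IRS1 bis-phosphopeptide, preincubated 30 min with compounds in HEPES pH 7.2 buffer with 5 mM DTT. 75 μM DiFMUP added for 30 min at room temperature, stopped with bpV; fluorescence read. IC50 from four-parameter logistic fit of % inhibition.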

[3] = Homo sapiens, KYSE-520, 2 h, KYSE-520 cells, 2 h at 37° C., phospho-ERK1/2 (Thr202/Tyr204) TR-FRET
[4] = KYSE-520 cells, 2 h at 37° C., phospho-ERK1/2 (Thr202/Tyr204) TR-FRET

Chain of SHP-2 enzyme (Met1-Leu525) (Q06124 1-525): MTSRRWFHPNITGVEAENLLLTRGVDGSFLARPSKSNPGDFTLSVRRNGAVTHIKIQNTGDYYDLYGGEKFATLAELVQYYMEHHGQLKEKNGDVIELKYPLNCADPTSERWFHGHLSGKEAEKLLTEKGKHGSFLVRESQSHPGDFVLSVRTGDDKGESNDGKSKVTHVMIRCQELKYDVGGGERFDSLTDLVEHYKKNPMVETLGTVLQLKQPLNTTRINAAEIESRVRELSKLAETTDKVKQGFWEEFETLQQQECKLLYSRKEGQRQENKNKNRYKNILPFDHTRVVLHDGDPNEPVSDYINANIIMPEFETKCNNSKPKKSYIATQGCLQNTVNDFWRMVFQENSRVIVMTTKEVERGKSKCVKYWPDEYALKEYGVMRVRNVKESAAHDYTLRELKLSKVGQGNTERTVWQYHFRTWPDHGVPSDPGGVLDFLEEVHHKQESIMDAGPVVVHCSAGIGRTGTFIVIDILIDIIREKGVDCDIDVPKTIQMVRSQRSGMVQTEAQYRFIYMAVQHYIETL

Row | Structure (SMILES) | IC50 [1, 3] [nM] | IC50 [2] [nM] | IC50 [1, 4] [nM] | IC50 ([1]; Homo sapiens, KYSE-520, 2 h) [nM]
1 | Cn1cc2c(Cl)c(-c3n[nH]c4nc(N5C[C@@H]6[C@H](C5)[C@@]6(CN)c5cccc(Cl)n5)cnc34)ccc2n1 [Example 494, ((1R,5S,6r)-3-(3-(4-chloro-2-methyl-2H-indazol-5-yl)-1H-pyrazolo[3,4-b]pyrazin-6-yl)-6-(6-chloropyridin-2-yl)-3-azabicyclo[3.1.0]hexan-6-yl)methanamine] | < 1000 | < 500 | – | –
2 | Cn1cc2c(Cl)c(-c3n[nH]c4nc(N5C[C@@H]6[C@H](C5)[C@@]6(CN)c5ccc(F)cn5)cnc34)ccc2n1 [Example 495, ((1R,5S,6r)-3-(3-(4-chloro-2-methyl-2H-indazol-5-yl)-1H-pyrazolo[3,4-b]pyrazin-6-yl)-6-(5-fluoropyridin-2-yl)-3-azabicyclo[3.1.0]hexan-6-yl)methanamine] | < 1000 | < 500 | – | –
3 | Cc1cccc([C@@]2(CN)[C@@H]3CN(c4cnc5c(-c6ccc7nn(C)cc7c6Cl)n[nH]c5n4)C[C@@H]32)n1 [Example 496, ((1R,5S,6r)-3-(3-(4-chloro-2-methyl-2H-indazol-5-yl)-1H-pyrazolo[3,4-b]pyrazin-6-yl)-6-(6-methylpyridin-2-yl)-3-azabicyclo[3.1.0]hexan-6-yl)methanamine] | < 1000 | < 500 | – | –
4 | Cc1csc([C@@]2(CN)[C@@H]3CN(c4cnc5nc(Sc6ccnc(N)c6Cl)ccc5n4)C[C@@H]32)n1 [Example 497, 4-((2-((1R,5S,6r)-6-(aminomethyl)-6-(4-methylthiazol-2-yl)-3-azabicyclo[3.1.0]hexan-3-yl)pyrido[2,3-b]pyrazin-6-yl)thio)-3-chloropyridin-2-amine] | < 1000 | < 500 | – | –
5 | Cn1cc2c(Cl)c(-c3n[nH]c4nc(N5C[C@@H]6[C@H](C5)[C@@]6(CN)c5ccccc5F)cnc34)ccc2n1 [Example 499, ((1R,5S,6s)-3-(3-(4-chloro-2-methyl-2H-indazol-5-yl)-1H-pyrazolo[3,4-b]pyrazin-6-yl)-6-(2-fluorophenyl)-3-azabicyclo[3.1.0]hexan-6-yl)methanamine] | < 1000 | < 500 | – | –
6 | COc1nccc(-c2n[nH]c3nc(N4CC[C@@H]5[C@H](C4)[C@@]5(CN)c4ccccc4F)cnc23)c1Cl [Example 500] | – | < 500 | < 1000 | –
7 | Cc1nnc([C@@]2(CN)[C@@H]3CN(c4cnc5c(-c6ccc7nn(C)cc7c6Cl)n[nH]c5n4)C[C@@H]32)s1 [Example 501, ((1R,5S,6r)-3-(3-(4-chloro-2-methyl-2H-indazol-5-yl)-1H-pyrazolo[3,4-b]pyrazin-6-yl)-6-(5-methyl-1,3,4-thiadiazol-2-yl)-3-azabicyclo[3.1.0]hexan-6-yl)methanamine] | < 1000 | < 500 | – | –
8 | Cc1csc(C2(CN)[C@@H]3CN(c4cnc5c(-c6ccc(C(N)=O)c7ncccc67)n[nH]c5n4)C[C@@H]32)n1 (some centres unmarked) [Example 504] | – | < 500 | < 1000 | –
9 | Cc1csc([C@@]2(CN)[C@@H]3CN(c4cnc5c(-c6ccc7n[nH]cc7c6Cl)n[nH]c5n4)C[C@@H]32)n1 [Example 505] | – | < 500 | < 1000 | –
10 | Cc1csc([C@@]2(CN)[C@@H]3CN(c4cnc5c(-c6ccc7c(cnn7C(F)F)c6Cl)n[nH]c5n4)C[C@@H]32)n1 [Example 506] | – | < 500 | < 1000 | –
11 | NC[C@]1(c2ccccc2F)[C@@H]2CCN(c3cnc4c(-c5ccc(F)c6ncccc56)c[nH]c4n3)C[C@@H]21 [Example 507, ((1S,6R,7R)-7-(2-fluorophenyl)-3-(7-(8-fluoroquinolin-5-yl)-5H-pyrrolo[2,3-b]pyrazin-3-yl)-3-azabicyclo[4.1.0]heptan-7-yl)methanamine] | < 1000 | < 500 | – | –
12 | NC[C@]1(c2ccccc2F)[C@@H]2CCN(c3cnc4c(-c5ccc(S(=O)(=O)F)c6ncccc56)n[nH]c4n3)C[C@@H]21 [Example 508, 5-(6-((1S,6R,7R)-7-(aminomethyl)-7-(2-fluorophenyl)-3-azabicyclo[4.1.0]heptan-3-yl)-1H-pyrazolo[3,4-b]pyrazin-3-yl)quinoline-8-sulfonyl fluoride] | – | < 500 | – | < 1000
13 | NC[C@]1(c2ccccc2F)[C@@H]2CCN(c3cnc4c(-c5ccnc(F)c5Cl)n[nH]c4n3)C[C@@H]21 [Example 509, ((1S,6R,7R)-3-(3-(3-chloro-2-fluoropyridin-4-yl)-1H-pyrazolo[3,4-b]pyrazin-6-yl)-7-(2-fluorophenyl)-3-azabicyclo[4.1.0]heptan-7-yl)methanamine] | < 1000 | < 500 | – | –
14 | NC[C@]1(c2ccccc2)[C@@H]2CN(c3cnc4c(-c5ccc(F)c6ncccc56)n[nH]c4n3)C[C@@H]21 [Example 510, ((1R,5S,6s)-3-(3-(8-fluoroquinolin-5-yl)-1H-pyrazolo[3,4-b]pyrazin-6-yl)-6-phenyl-3-azabicyclo[3.1.0]hexan-6-yl)methanamine] | < 1000 | < 500 | – | –
15 | Cn1ccc([C@@]2(CN)[C@@H]3CN(c4cnc5c(-c6ccc7nccnc7c6Cl)n[nH]c5n4)C[C@@H]32)n1 [Example 511, ((1R,5S,6r)-3-(3-(5-chloroquinoxalin-6-yl)-1H-pyrazolo[3,4-b]pyrazin-6-yl)-6-(1-methyl-1H-pyrazol-3-yl)-3-azabicyclo[3.1.0]hexan-6-yl)methanamine] | < 1000 | < 500 | – | –
16 | Cc1csc([C@@]2(CN)[C@@H]3CN(c4cnc5c(-c6ccc(C(N)=O)cc6Cl)n[nH]c5n4)C[C@@H]32)n1 [Example 512] | – | < 500 | < 1000 | –
17 | Cc1nc([C@@]2(CN)[C@@H]3CN(c4cnc5c(-c6ccc7nn(C)cc7c6Cl)n[nH]c5n4)C[C@@H]32)co1 [Example 514, ((1R,5S,6r)-3-(3-(4-chloro-2-methyl-2H-indazol-5-yl)-1H-pyrazolo[3,4-b]pyrazin-6-yl)-6-(2-methyloxazol-4-yl)-3-azabicyclo[3.1.0]hexan-6-yl)methanamine] | < 1000 | < 500 | – | –

Now from value to compound, other results behind:

Row | IC50 [1, 3] [nM] | IC50 [2] [nM] | IC50 [1, 4] [nM] | Structure (SMILES) | IC50 ([1]; Homo sapiens, KYSE-520, 2 h) [nM]
18 | < 1000 | < 500 | – | Cn1cc2c(Cl)c(-c3n[nH]c4nc(N5C[C@@H]6[C@H](C5)[C@@]6(CN)c5nc(Cl)cs5)cnc34)ccc2n1 [Example 487, ((1R,5S,6r)-3-(3-(4-chloro-2-methyl-2H-indazol-5-yl)-1H-pyrazolo[3,4-b]pyrazin-6-yl)-6-(4-chlorothiazol-2-yl)-3-azabicyclo[3.1.0]hexan-6-yl)methanamine] | –
19 | < 1000 | < 500 | – | Cn1cc2c(Cl)c(-c3n[nH]c4nc(N5C[C@@H]6[C@H](C5)[C@@]6(CN)c5nc(C(F)(F)F)cs5)cnc34)ccc2n1 [Example 488, ((1R,5S,6r)-3-(3-(4-chloro-2-methyl-2H-indazol-5-yl)-1H-pyrazolo[3,4-b]pyrazin-6-yl)-6-(4-(trifluoromethyl)thiazol-2-yl)-3-azabicyclo[3.1.0]hexan-6-yl)methanamine] | –
20 | < 1000 | < 500 | – | Cn1cc2c(Cl)c(-c3n[nH]c4nc(N5C[C@@H]6[C@H](C5)[C@@]6(CN)c5ncc(F)s5)cnc34)ccc2n1 [Example 489, ((1R,5S,6r)-3-(3-(4-chloro-2-methyl-2H-indazol-5-yl)-1H-pyrazolo[3,4-b]pyrazin-6-yl)-6-(5-fluorothiazol-2-yl)-3-azabicyclo[3.1.0]hexan-6-yl)methanamine] | –
21 | < 1000 | < 500 | – | Cn1cc2c(Cl)c(-c3n[nH]c4nc(N5C[C@@H]6[C@H](C5)[C@@]6(CN)c5cnsn5)cnc34)ccc2n1 [Example 490, ((1R,5S,6r)-3-(3-(4-chloro-2-methyl-2H-indazol-5-yl)-1H-pyrazolo[3,4-b]pyrazin-6-yl)-6-(1,2,5-thiadiazol-3-yl)-3-azabicyclo[3.1.0]hexan-6-yl)methanamine] | –
22 | < 1000 | < 500 | – | Cn1cc2c(Cl)c(-c3n[nH]c4nc(N5C[C@@H]6[C@H](C5)[C@@]6(CN)c5ccccn5)cnc34)ccc2n1 [Example 491, ((1R,5S,6r)-3-(3-(4-chloro-2-methyl-2H-indazol-5-yl)-1H-pyrazolo[3,4-b]pyrazin-6-yl)-6-(pyridin-2-yl)-3-azabicyclo[3.1.0]hexan-6-yl)methanamine] | –
23 | < 1000 | < 500 | – | Cc1nc2ccc(-c3n[nH]c4nc(N5C[C@@H]6[C@H](C5)[C@@]6(CN)c5ccccn5)cnc34)c(Cl)c2s1 [Example 492, ((1R,5S,6r)-3-(3-(7-chloro-2-methylbenzo[d]thiazol-6-yl)-1H-pyrazolo[3,4-b]pyrazin-6-yl)-6-(pyridin-2-yl)-3-azabicyclo[3.1.0]hexan-6-yl)methanamine] | –
24 | < 1000 | < 500 | – | Cc1ccc([C@@]2(CN)[C@@H]3CN(c4cnc5c(-c6ccc7nn(C)cc7c6Cl)n[nH]c5n4)C[C@@H]32)nc1 [Example 493, ((1R,5S,6r)-3-(3-(4-chloro-2-methyl-2H-indazol-5-yl)-1H-pyrazolo[3,4-b]pyrazin-6-yl)-6-(5-methylpyridin-2-yl)-3-azabicyclo[3.1.0]hexan-6-yl)methanamine] | –
25 | < 1000 | < 500 | – | Cc1csc([C@@]2(CN)[C@@H]3CN(c4cnc(Sc5ccnc(N)c5Cl)cn4)C[C@@H]32)n1 [Example 498, 4-((5-((1R,5S,6r)-6-(aminomethyl)-6-(4-methylthiazol-2-yl)-3-azabicyclo[3.1.0]hexan-3-yl)pyrazin-2-yl)thio)-3-chloropyridin-2-amine] | –

From patent US20240109900A1, “AZABICYCLIC SHP2 INHIBITORS” (IRBM S.P.A., priority 2021, published 2024)
